The numbers were not newly measured in publication PMC7520961, “Safety evaluation of the interchangeable use of robenacoxib in commercially-available tablets and solution for injection in cats” (BMC Veterinary Research, 2020), which cites them from elsewhere.

Series [1] deals with anesthetized cats. The settings on record: cited from earlier work.
The subject of series [2] is humans. The settings on record: in vivo; cited from earlier work.

Turning to `CCC[S+]([O-])CCCN(CC)CC(O)COc1ccc(C#N)cc1` (stereo not shown) [almokalant], in series [1] (almokalant infusion), the QT interval maximum is listed as 349 ± 8.0 ms and the “lengthening of the QT interval” value is reported as “approximately 45%”. Moreover, the “QT interval before lengthening” value in series [1] (before almokalant effect) is on record as 241 ± 6.0 ms.

For the compound `CS(=O)(=O)c1ccc(C2=C(c3ccccc3)C(=O)OC2)cc1` [rofecoxib], the adverse oral reaction result in series [2] is “Oral ulceration”.
